Where two headings read alike, the source gives them in different places.
Legend:
HMC3 microglia cells = test: Cell proliferation (cytotoxicity) analysis with xCELLigence, HMC3; assay type: cell-based, human
Method: (§1) Cell proliferation analysis was performed with xCELLigence Real-Time Cell Analysis System to assess TSA, RG108, givinostat, and rifampin concentrations for use in both models. Differentiated SH-SY5Y and HMC3 microglia cells were seeded at a 5x10^3 density per well and incubated 24 h until CI values reached a log phase. The system stopped at the end of 24 h, 100, 10 and 1 μM TSA, givinostat, RG108 and rifampin were applied on current media and the cell viability was tracked. […] Simultaneously, slope plots were drawn using the CI values at 24 and 48 hours, and the statistical significance of the values discovered by assuming the average CI values of the control wells to be 100% was calculated.

[1] = test system: differentiated SH-SY5Y cells; test: Cell proliferation (cytotoxicity) analysis with xCELLigence, SH-SY5Y; assay type: cell-based, human
Method: as §1

[2] = test system: differentiated SH-SY5Y cells; test: Cell viability against Aβ-induced neurotoxicity, xCELLigence; assay type: cell-based, human; settings: 24 h pretreatment (drugs 100 nM; CFS 1 μg/ml + IFN-γ; LPS 100 ng/ml + IFN-γ), then 5 μM Aβ (1–42) aggregates 24 h
Method: Pathological deterioration in AD is mainly associated with overproduction of the Aβ peptide and the Aβ (1–42) variant is the toxic form that is more predominant in Alzheimer’s patients. In this study, a modified oligomeric Aβ (1–42) neurotoxicity analysis protocol was applied in order to elucidate the effects of treatment groups on SH-SY5Y cell viability in the presence of Aβ [56]. In order to model Aβ-induced neurotoxicity in vitro, an oligomeric form of the Aβ1–42 peptide was prepared by diluting with ice-cold Ham’s F12 Nutrient Mixture medium dissolved in PBS containing 0.02 M NaOH at a final concentration of 50 μM and kept in a 37°C incubator for 7 days to form peptide aggregates prior to the experiments. 5x10^3 SH-SY5Y cells were differentiated inside the xCELLigence instrument for 5 days and treated with 100 nM TSA, RG108, givinostat, rifampin; 100 ng/ml LPS+IFN-ɣ or 1 μg/ml CFS+IFN-ɣ for 24 h in order to evaluate neuroprotection. The co-culture was performed in the same way as the neuroinflammation model. Neurotoxicity was obtained instead of neuroinflammation by diluting to 5 μM with fresh medium and adding Aβ1–42 aggregates to the wells for 24 h in 100 μl of medium. Cell viability data was then monitored for 24 h and analyzed within the instrument.

[3] = test system: differentiated SH-SY5Y cells; test: Annexin V-PI staining of Aβ-induced cell death, flow cytometry; assay type: cell-based, human; settings: pretreatment (drugs 100 nM; LPS 100 ng/ml + IFN-γ; CFS 1 μg/ml + IFN-γ) + 5 μM Aβ 24 h
Method: To determine neuronal apoptosis associated with Aβ exposure, 25x10^3 differentiated SH-SY5Y cells were seeded in 24-well plates and Aβ was applied. After 24 h, cells were trypsinized and staining was performed according to the CF 488A Annexin V and PI Apoptosis Kit (Biotium, USA, Cat. No: 30061) protocol. After washing the cells with 1xPBS, the working solution was prepared by diluting the PI with Annexin V binding buffer included in the kit. 5 μl Annexin V and 2 μl PI working solution were added to the centrifuge tubes and binded with 100 μl Annexin V binding buffer. After the samples were incubated for 30 minutes on ice and in the dark, 400 μl of Annexin V binding buffer was added to each tube and the samples were measured and analyzed in a BD Accuri™ C6 flow cytometry device.

SH-SY5Y cells = test: Total ROS/Superoxide detection; assay type: cell-based, human
Method: The Total ROS/Superoxide Detection Kit (ENZ-51010, Enzo) was used according to the kit process for evaluating the protective effects of the treatment groups on SH-SY5Y cells seeded at a 2x10^4 density per well in 96-well plates and Aβ was applied. ROS inhibitor N-acetyl cysteine (NAC) was applied at 5 mM concentration to negative control groups 30 minutes before the experiment and after incubation, 100 μL of “ROS/Superoxide Detection Solution” was added to the wells in the kit. The same procedure was done without the application of ROS inhibitor. Fluorometric analysis of stained cells was analyzed with Cytation 3 Cell Imaging Multi-Mode Reader (BioTek) using 490/525 nm and 550/620 nm filter sets.

motor neurons = test system: motor neurons; set-up: method as in PMID 23900692; settings: inhibiting DNMT catalytic activity; cited from earlier work

Q: For `O=C(O)C(Cc1c[nH]c2ccccc12)N1C(=O)c2ccccc2C1=O` (stereo not shown) [RG108], which “Reduction of HMC3 cell viability compared to the control group” value (“Reduction of HMC3 cell viability” for short) (HMC3 microglia cells; 10 μM, 24 hours) is on record?
A: 3.12%

Q: And the “Reduction of HMC3 cell viability” value (HMC3 microglia cells; 10 μM, 48 hours)?
A: 8.33%

Q: What about the “Reduction of HMC3 cell viability” value (HMC3 microglia cells; 100 μM, 24 hours) of the same compound?
A: 43.26%

Q: What about the “Reduction of HMC3 cell viability” value (HMC3 microglia cells; 100 μM, 48 hours) of the same compound?
A: 57.56%

Q: And the IC50 (HMC3 microglia cells; from CI values at 24th hour, 1, 10 and 100 μM tested, read-out: IC50 Values 24h HMC3)?
A: > 400 µM

Q: And the IC50 (HMC3 microglia cells; from CI values at 48th hour, 1, 10 and 100 μM tested, read-out: IC50 Values 48h HMC3)?
A: > 400 µM

Q: And the “Reduction of differentiated SH-SY5Y cell viability” value ([1]; 1 μM, 24 hours)?
A: 21.98%

Q: What about the “Reduction of differentiated SH-SY5Y cell viability” value ([1]; 1 μM, 48 hours) of the same compound?
A: 15.47%

Q: What about the “Reduction of differentiated SH-SY5Y cell viability” value ([1]; 10 μM, 24 hours) of the same compound?
A: 43.73%

Q: What about the “Reduction of differentiated SH-SY5Y cell viability” value ([1]; 10 μM, 48 hours) of the same compound?
A: 33.89%

Q: What about the “Reduction of differentiated SH-SY5Y cell viability” value ([1]; 100 μM, 24 hours) of the same compound?
A: 64.03%

Q: What about the “Reduction of differentiated SH-SY5Y cell viability” value ([1]; 100 μM, 48 hours) of the same compound?
A: 53.43%

Q: What about the IC50 ([1]; from CI values at 24th hour, 1, 10 and 100 μM tested, read-out: IC50 Values 24h SH-SY5Y) of the same compound?
A: 1.49 µM

Q: And the IC50 ([1]; from CI values at 48th hour, 1, 10 and 100 μM tested, read-out: IC50 Values 48h SH-SY5Y)?
A: 9.6 µM

Q: What about the “CI values compared to the control group” value [2] of the same compound?
A: 120.7%

Q: What about the “Necrotic effect (Q5-UL)” value ([3]; control 1.6%) of the same compound?
A: 6.6%

Q: What about the “Apoptotic effect (early apoptosis + late apoptosis)” value ([3]; control 1.9%) of the same compound?
A: 4.3%

Q: What about the “Percentage of living cells (Live)” value ([3]; control 96.5%) of the same compound?
A: 89.1%

Q: What about the “Increase of total amount of ROS compared to the control group, with NAC” value (SH-SY5Y cells; 30 minutes NAC 5 mM, treated (drugs 100 nM; LPS 100 ng/ml; CFS 1 μg/ml, with IFN-γ) prior to Aβ exposure) of the same compound?
A: 4.29%

Q: What about the “Decrease of total ROS amount according to the Aβ group” value (SH-SY5Y cells; cells treated (drugs 100 nM; LPS 100 ng/ml; CFS 1 μg/ml, with IFN-γ) before exposure to Aβ, without NAC) of the same compound?
A: 52.61%

Q: What about the “Decrease of total amount of ROS compared to the control group” value (SH-SY5Y cells; cells treated with compounds (100 nM) before exposure to Aβ, without NAC) of the same compound?
A: 9.03%

Q: What about the “Effect on motor neurons” value (motor neurons) of the same compound?
A: protect motor neurons from excessive DNA methylation and apoptosis

— PMC8631675, “Neuroprotective effects of some epigenetic modifying drugs’ on Chlamydia pneumoniae-induced neuroinflammation: A novel model” (PLoS ONE, 2021)
